Experimental data: US10428080B2, “TBK/IKK inhibitor compounds and uses thereof” (Merck Patent GmbH, priority 2015, dated 2019)
Structures can show the parent of a compound that is named as a salt.

Experiments:
[1] = system: phosphorylation of the IRF-3 protein in MDA-MB-468 cells; test: pIRF3 immunocytochemistry cell based assay; details: Homo sapiens; MDA-MB-468 cells, Poly(I:C) stimulation; read-out: pIRF3 IC50
Procedure, shortened: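 After 2 h stimulation with Poly(I:C) (10 ug/ml), following 1 h compound pre-treatment (10-point, 3-fold dilution, top 10 uM), MDA-MB-468 cells were fixed and stained with anti-pIRF3 antibody. pIRF3 fluorescence was normalized to PI staining or cell count on an Acumen cytometer. IC50 curves were derived from this.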

IKKε = biological target: T1, IKKε (Homo sapiens, UniProt Q14164); test: IKKe Biochemical Assay; details: read-out: IKKε IC50
T1 sequence (Q14164 1-716): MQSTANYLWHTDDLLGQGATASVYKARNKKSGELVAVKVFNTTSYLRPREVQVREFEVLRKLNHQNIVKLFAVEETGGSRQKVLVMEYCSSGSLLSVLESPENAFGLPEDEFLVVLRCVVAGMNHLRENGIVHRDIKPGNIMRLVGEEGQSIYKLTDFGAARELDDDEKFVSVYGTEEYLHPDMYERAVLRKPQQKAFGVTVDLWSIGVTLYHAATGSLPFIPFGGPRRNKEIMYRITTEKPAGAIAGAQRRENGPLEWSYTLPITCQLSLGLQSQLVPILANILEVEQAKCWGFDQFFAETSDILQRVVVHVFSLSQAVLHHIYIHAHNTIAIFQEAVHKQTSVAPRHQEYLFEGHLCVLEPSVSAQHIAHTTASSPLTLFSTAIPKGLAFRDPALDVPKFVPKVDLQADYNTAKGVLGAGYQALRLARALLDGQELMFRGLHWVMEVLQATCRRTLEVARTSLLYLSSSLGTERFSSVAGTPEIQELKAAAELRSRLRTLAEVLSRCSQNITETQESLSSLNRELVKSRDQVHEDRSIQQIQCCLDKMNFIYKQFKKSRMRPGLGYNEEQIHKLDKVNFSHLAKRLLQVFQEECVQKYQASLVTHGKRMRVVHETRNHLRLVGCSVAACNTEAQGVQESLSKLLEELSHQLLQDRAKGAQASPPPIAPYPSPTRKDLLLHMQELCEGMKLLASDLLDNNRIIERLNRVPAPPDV
Procedure, shortened: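 Activity was measured as mobility-shift separation of phosphorylated from unphosphorylated substrate on a LabChip EZ Reader. Compound was titrated from 30 uM final in 10 points, 1:4 steps, with 1% DMSO, and enzyme plus substrate reacted 90 min at 25° C before stop buffer. Control wells held 10 uM staurosporine.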

TBK1 = biological target: T2, TBK1 (Homo sapiens, UniProt Q9UHD2); test: TBK Biochemical Assay; details: read-out: TBK1 IC50
T2 sequence (Q9UHD2 1-729): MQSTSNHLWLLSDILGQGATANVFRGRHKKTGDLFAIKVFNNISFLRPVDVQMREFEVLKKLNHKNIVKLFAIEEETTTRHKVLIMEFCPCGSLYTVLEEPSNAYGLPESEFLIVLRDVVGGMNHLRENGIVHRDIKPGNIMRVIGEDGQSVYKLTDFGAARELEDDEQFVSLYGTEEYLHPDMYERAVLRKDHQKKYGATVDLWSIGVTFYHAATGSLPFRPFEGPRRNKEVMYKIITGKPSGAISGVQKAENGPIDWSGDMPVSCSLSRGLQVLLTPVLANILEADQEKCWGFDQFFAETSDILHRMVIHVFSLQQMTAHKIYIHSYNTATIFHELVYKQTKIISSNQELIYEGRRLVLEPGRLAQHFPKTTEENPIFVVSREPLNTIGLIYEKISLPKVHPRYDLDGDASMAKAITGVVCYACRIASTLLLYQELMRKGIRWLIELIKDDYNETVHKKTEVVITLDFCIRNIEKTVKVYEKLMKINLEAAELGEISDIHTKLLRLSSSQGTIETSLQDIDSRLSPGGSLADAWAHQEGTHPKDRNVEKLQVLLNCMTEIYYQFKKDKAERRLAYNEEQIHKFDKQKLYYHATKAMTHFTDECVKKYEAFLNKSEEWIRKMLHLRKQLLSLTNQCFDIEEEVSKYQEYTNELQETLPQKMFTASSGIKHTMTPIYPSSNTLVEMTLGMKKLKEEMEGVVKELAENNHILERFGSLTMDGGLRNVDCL
Procedure, shortened: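 Caliper LabChip mobility-shift readout of substrate and product after 90 min of TBK1 reaction at 25° C and stop-buffer addition. Compounds tested in 1:4 serial dilution over 10 points from 30 uM final at 1% DMSO; staurosporine 10 uM final defines full inhibition.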

Compound	IC50 [1]	IC50 (IKKε)	IC50 (TBK1)
COc1cc(C(=O)NNC(=O)OC(C)(C)C)ccc1-c1cc2nccc(-c3ccc(OC4CCOCC4)c(C#N)c3)c2o1 [Compound 67, N′-(4-{7-[3-Cyano-4-(tetrahydro-pyran-4-yloxy)-phenyl]-furo[3,2-b]pyridin-2-yl}-3-methoxy-benzoyl)-hydrazinecarboxylic acid tert-butyl ester]	100 to 1000 nM	< 100 nM	< 100 nM
COc1cc(C(=O)NC2CCC(O)C2)ccc1-c1cc2nccc(-c3ccc(OC4CCOCC4)c(C#N)c3)c2o1 (stereo not drawn) [Compound 68, 4-{7-[3-Cyano-4-(tetrahydro-pyran-4-yloxy)-phenyl]-furo[3,2-b]pyridin-2-yl}-N-(3-hydroxy-cyclopentyl)-3-methoxy-benzamide]	100 to 1000 nM	< 100 nM	< 100 nM
COc1cc(C(=O)NCC2(F)COC2)ccc1-c1cc2nccc(-c3ccc(OC4CCOCC4)c(C#N)c3)c2o1 [Compound 69, 4-{7-[3-Cyano-4-(tetrahydro-pyran-4-yloxy)-phenyl]-furo[3,2-b]pyridin-2-yl}-N-(3-fluoro-oxetan-3-ylmethyl)-3-methoxy-benzamide]	100 to 1000 nM	< 100 nM	< 100 nM
COc1cc(C(=O)N2CCC(CO)CC2)ccc1-c1cc2nccc(-c3ccc(N4CC[C@H](F)C4)c(C#N)c3)c2o1 [Compound 70, 2-((S)-3-Fluoro-pyrrolidin-1-yl)-5-{2-[4-(4-hydroxymethyl-piperidine-1-carbonyl)-2-methoxy-phenyl]-furo[3,2-b]pyridin-7-yl}-benzonitrile]	100 to 1000 nM	< 100 nM	< 100 nM
COc1cc(C(=O)N(C)C)ccc1-c1cc2nccc(-c3ccc(OC4CCNCC4(F)F)c(C#N)c3)c2o1 (stereo not drawn) [Compound 71, 4-{7-[3-Cyano-4-(3,3-difluoro-piperidin-4-yloxy)-phenyl]-furo[3,2-b]pyridin-2-yl}-3-methoxy-N,N-dimethyl-benzamide hydrochloride]	< 100 nM	< 100 nM	< 100 nM
COc1cc(C(=O)NC2CN3CCC2CC3)ccc1-c1cc2nccc(-c3ccc(N4CC[C@H](F)C4)c(C#N)c3)c2o1 (stereo partly drawn) [Compound 72, N-(1-Aza-bicyclo[2.2.2]oct-3-yl)-4-{7-[3-cyano-4-((S)-3-fluoro-pyrrolidin-1-yl)-phenyl]-furo[3,2-b]pyridin-2-yl}-3-methoxy-benzamide]	100 to 1000 nM	< 100 nM	< 100 nM
COc1cc(C(=O)N2CC3CN(C)CC3C2)ccc1-c1cc2nccc(-c3ccc(NC4CCOCC4)c(C#N)c3)c2o1 (stereo not drawn) [Compound 73, 5-{2-[2-Methoxy-4-(5-methyl-hexahydro-pyrrolo[3,4-c]pyrrole-2-carbonyl)-phenyl]-furo[3,2-b]pyridin-7-yl}-2-(tetrahydro-pyran-4-ylamino)-benzonitrile]	< 100 nM	< 100 nM	< 100 nM
COc1cc(C(=O)NC2CC(O)C2)ccc1-c1cc2nccc(-c3ccc(OC4CCOCC4)c(C#N)c3)c2o1 (stereo not drawn) [Compound 75, 4-{7-[3-Cyano-4-(tetrahydro-pyran-4-yloxy)-phenyl]-furo[3,2-b]pyridin-2-yl}-N-(3-hydroxy-cyclobutyl)-3-methoxy-benzamide]	100 to 1000 nM	< 100 nM	< 100 nM
COc1cc(C(=O)N2CCC(CO)C2)ccc1-c1cc2nccc(-c3ccc(N4CC[C@H](F)C4)c(C#N)c3)c2o1 (stereo partly drawn) [Compound 76, 2-((S)-3-Fluoro-pyrrolidin-1-yl)-5-{2-[4-(3-hydroxymethyl-pyrrolidine-1-carbonyl)-2-methoxy-phenyl]-furo[3,2-b]pyridin-7-yl}-benzonitrile]	100 to 1000 nM	< 100 nM	< 100 nM
COc1cc(C(=O)N2CC(F)(F)C2)ccc1-c1cc2nccc(-c3ccc(OC4CCOCC4)c(C#N)c3)c2o1 [Compound 77, 5-{2-[4-(3,3-Difluoro-azetidine-1-carbonyl)-2-methoxy-phenyl]-furo[3,2-b]pyridin-7-yl}-2-(tetrahydro-pyran-4-yloxy)-benzonitrile]	100 to 1000 nM	< 100 nM	< 100 nM
COc1cc(C(=O)N(C)C)ccc1-c1cc2nccc(-c3ccc(NC4CCOCC4F)c(C#N)c3)c2o1 (stereo not drawn) [Compound 78]	100 to 1000 nM	< 100 nM	< 100 nM
COc1cc(C(=O)NC2CN3CCC2CC3)ccc1-c1cc2nccc(-c3ccc(OC4CCOCC4)c(C#N)c3)c2o1 (stereo not drawn) [Compound 79, N-(1-Aza-bicyclo[2.2.2]oct-3-yl)-4-{7-[3-cyano-4-(tetrahydro-pyran-4-yloxy)-phenyl]-furo[3,2-b]pyridin-2-yl}-3-methoxy-benzamide]	100 to 1000 nM	< 100 nM	< 100 nM
COc1cc(C(=O)NOC2COC2)ccc1-c1cc2nccc(-c3ccc(OC4CCOCC4)c(C#N)c3)c2o1 [Compound 80, 4-{7-[3-Cyano-4-(tetrahydro-pyran-4-yloxy)-phenyl]-furo[3,2-b]pyridin-2-yl}-3-methoxy-N-(oxetan-3-yloxy)-benzamide]	100 to 1000 nM	< 100 nM	< 100 nM
COc1cc(C(=O)N(C)C)ccc1-c1cc2nccc(-c3ccc(NC4CCOCC4O)c(C#N)c3)c2o1 (stereo not drawn) [Compound 82]	100 to 1000 nM	< 100 nM	< 100 nM
COc1cc(C(=O)NC2C3CNCC32)ccc1-c1cc2nccc(-c3ccc(OC4CCOCC4)c(C#N)c3)c2o1 (stereo not drawn) [Compound 84, N-(3-Aza-bicyclo[3.1.0]hex-6-yl)-4-{7-[3-cyano-4-(tetrahydro-pyran-4-yloxy)-phenyl]-furo[3,2-b]pyridin-2-yl}-3-methoxy-benzamide hydrochloride]	100 to 1000 nM	< 100 nM	< 100 nM
COc1cc(C(=O)NC2CN3CCC2CC3)ccc1-c1cc2nccc(-c3ccc(N4CCC(F)C4)c(C#N)c3)c2o1 (stereo not drawn) [Compound 87, N-(1-Aza-bicyclo[2.2.2]oct-3-yl)-4-{7-[3-cyano-4-(3-fluoro-pyrrolidin-1-yl)-phenyl]-furo[3,2-b]pyridin-2-yl}-3-methoxy-benzamide]	100 to 1000 nM	< 100 nM	< 100 nM
COc1cc(C(=O)O)ccc1-c1cc2nccc(-c3ccc(NC4CCOCC4)c(C#N)c3)c2o1 [Compound 88]	100 to 1000 nM	< 100 nM	< 100 nM
COc1cc(C(=O)N(C)C)ccc1-c1cc2nccc(-c3ccc(OC4CCOC4)c(C#N)c3)c2o1 (stereo not drawn) [Compound 90, 4-{7-[3-Cyano-4-(tetrahydro-furan-3-yloxy)-phenyl]-furo[3,2-b]pyridin-2-yl}-3-methoxy-N,N-dimethyl-benzamide]	100 to 1000 nM	< 100 nM	< 100 nM
COc1cc(C(=O)N2CCC(CO)C2)ccc1-c1cc2nccc(-c3ccc(NC4CCOCC4)c(C#N)c3)c2o1 (stereo not drawn) [Compound 91, 5-{2-[4-(3-Hydroxymethyl-pyrrolidine-1-carbonyl)-2-methoxy-phenyl]-furo[3,2-b]pyridin-7-yl}-2-(tetrahydro-pyran-4-ylamino)-benzonitrile]	100 to 1000 nM	< 100 nM	< 100 nM
